From the kinase profiling compilation of Christmann-Franck et al. (2016)

Key:
Assay in all cases: KINOMEscan competition binding
Settings in all cases: compound 10.0 µM
[1] = molecular target: PRKCD (human) (UniProt Q05655)
[2] = molecular target: LATS1 (human) (UniProt O95835)
[3] = molecular target: CAMKK2 (human) (UniProt Q96RR4)
[4] = molecular target: DDR1 (human) (UniProt Q08345)
[5] = molecular target: FGFR1 (human) (UniProt P11362)
[6] = molecular target: PKMYT1 (human) (UniProt Q99640)
[7] = molecular target: PIK3CD (human) (UniProt O00329)
[8] = molecular target: FGFR4 (human) (UniProt P22455)
[9] = molecular target: MST4 (human) (UniProt Q9P289)
[10] = molecular target: MYLK (human) (UniProt Q15746)
[11] = molecular target: MUSK (human) (UniProt O15146)
[12] = molecular target: PLK2 (human) (UniProt Q9NYY3)
[13] = molecular target: MAP4K3 (human) (UniProt Q8IVH8)
[14] = molecular target: DYRK1A (human) (UniProt Q13627)
[15] = molecular target: CSK (human) (UniProt P41240)
[16] = molecular target: CSNK1A1L (human) (UniProt Q8N752)
[17] = molecular target: HIPK3 (human) (UniProt Q9H422)
[18] = molecular target: TLK2 (human) (UniProt Q86UE8)
[19] = molecular target: RPS6KA2 KD1 (human) (UniProt Q15349)
[20] = molecular target: CDK14 (human) (UniProt O94921)
[21] = molecular target: ROS1 (human) (UniProt P08922)
[22] = molecular target: PRKCQ (human) (UniProt Q04759)
[23] = molecular target: TYK2 JH2 pseudokinase (human) (UniProt P29597)
[24] = molecular target: CDK15 (human) (UniProt Q96Q40)
[25] = system: PIK3CA (human), P42336 [E545K]
[26] = molecular target: RIPK2 (human) (UniProt O43353)
[27] = molecular target: PRPF4B (human) (UniProt Q13523)
[28] = molecular target: ADCK4 (human) (UniProt Q96D53)
[29] = molecular target: MYO3B (human) (UniProt Q8WXR4)
[30] = system: FLT3 (human), P36888 [ITD]
[31] = molecular target: RAF1 (human) (UniProt P04049)
[32] = molecular target: HIPK2 (human) (UniProt Q9H2X6)
[33] = molecular target: PRKX (human) (UniProt P51817)
[34] = molecular target: TSSK1B (human) (UniProt Q9BXA7)
[35] = molecular target: PRKD2 (human) (UniProt Q9BZL6)
[36] = molecular target: RET (human) (UniProt P07949)
[37] = molecular target: YES1 (human) (UniProt P07947)
[38] = molecular target: ULK2 (human) (UniProt Q8IYT8)
[39] = molecular target: JAK1 JH2 pseudokinase (human) (UniProt P23458)
[40] = molecular target: ERBB4 (human) (UniProt Q15303)
[41] = molecular target: OXSR1 (human) (UniProt O95747)

Sequence of ULK2 (human) (Q8IYT8 whole entry, looked up): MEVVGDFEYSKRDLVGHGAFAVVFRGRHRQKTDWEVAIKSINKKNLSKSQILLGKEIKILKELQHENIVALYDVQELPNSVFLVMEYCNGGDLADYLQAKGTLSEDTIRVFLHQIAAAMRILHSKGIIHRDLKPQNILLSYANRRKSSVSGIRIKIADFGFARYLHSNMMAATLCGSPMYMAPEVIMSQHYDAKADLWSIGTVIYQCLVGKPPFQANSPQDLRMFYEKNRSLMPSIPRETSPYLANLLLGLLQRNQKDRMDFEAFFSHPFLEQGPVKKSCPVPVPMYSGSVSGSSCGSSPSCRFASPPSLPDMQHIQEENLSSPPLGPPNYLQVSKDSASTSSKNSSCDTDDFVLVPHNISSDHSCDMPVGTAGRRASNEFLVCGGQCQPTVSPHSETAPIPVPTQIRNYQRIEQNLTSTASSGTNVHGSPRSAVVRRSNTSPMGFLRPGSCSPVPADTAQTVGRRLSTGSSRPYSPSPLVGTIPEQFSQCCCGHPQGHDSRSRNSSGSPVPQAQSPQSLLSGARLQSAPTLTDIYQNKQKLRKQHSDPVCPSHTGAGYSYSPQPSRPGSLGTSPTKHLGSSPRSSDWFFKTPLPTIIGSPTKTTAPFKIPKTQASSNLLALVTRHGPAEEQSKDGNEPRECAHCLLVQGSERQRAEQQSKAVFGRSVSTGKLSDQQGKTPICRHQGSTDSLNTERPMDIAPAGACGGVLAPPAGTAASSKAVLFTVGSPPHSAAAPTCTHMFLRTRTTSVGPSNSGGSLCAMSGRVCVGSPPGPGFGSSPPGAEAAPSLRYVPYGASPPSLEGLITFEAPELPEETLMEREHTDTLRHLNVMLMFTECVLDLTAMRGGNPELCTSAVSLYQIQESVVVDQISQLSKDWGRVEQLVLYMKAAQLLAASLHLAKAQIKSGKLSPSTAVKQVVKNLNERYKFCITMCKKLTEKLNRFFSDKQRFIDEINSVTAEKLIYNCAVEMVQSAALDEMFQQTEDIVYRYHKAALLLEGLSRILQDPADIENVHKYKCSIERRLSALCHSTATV
Sequence of TLK2 (human) (Q86UE8 whole entry, looked up): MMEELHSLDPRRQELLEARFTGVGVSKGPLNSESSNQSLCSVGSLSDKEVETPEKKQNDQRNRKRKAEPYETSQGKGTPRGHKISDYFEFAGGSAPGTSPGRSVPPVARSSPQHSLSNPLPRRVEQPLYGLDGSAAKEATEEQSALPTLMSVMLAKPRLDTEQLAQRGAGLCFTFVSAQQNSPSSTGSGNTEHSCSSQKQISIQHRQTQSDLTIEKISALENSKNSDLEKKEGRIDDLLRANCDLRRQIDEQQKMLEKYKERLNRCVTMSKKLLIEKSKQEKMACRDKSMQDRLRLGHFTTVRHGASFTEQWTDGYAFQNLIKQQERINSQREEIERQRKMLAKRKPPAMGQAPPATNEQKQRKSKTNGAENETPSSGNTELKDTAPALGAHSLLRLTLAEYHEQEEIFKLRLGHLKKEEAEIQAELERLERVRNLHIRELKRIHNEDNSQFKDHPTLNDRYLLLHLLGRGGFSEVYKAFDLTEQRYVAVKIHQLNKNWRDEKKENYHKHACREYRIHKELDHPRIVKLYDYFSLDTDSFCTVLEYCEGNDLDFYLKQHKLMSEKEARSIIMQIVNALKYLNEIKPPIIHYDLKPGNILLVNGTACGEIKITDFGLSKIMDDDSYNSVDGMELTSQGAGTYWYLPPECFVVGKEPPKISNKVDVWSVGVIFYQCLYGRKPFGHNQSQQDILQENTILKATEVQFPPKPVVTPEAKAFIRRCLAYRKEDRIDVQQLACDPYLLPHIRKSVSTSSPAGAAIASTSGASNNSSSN
Sequence of TSSK1B (human) (Q9BXA7 whole entry, looked up): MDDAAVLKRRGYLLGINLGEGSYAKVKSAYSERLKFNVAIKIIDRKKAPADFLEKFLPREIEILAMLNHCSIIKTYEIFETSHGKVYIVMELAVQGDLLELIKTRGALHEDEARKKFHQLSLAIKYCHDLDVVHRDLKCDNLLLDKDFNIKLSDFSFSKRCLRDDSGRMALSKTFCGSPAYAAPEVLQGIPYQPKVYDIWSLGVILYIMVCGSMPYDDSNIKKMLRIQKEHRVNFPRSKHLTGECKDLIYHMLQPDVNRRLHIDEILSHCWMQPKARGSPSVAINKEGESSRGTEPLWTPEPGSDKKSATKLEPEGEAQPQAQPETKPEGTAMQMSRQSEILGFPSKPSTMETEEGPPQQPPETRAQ
Sequence of ADCK4 (human) (Q96D53 whole entry, looked up): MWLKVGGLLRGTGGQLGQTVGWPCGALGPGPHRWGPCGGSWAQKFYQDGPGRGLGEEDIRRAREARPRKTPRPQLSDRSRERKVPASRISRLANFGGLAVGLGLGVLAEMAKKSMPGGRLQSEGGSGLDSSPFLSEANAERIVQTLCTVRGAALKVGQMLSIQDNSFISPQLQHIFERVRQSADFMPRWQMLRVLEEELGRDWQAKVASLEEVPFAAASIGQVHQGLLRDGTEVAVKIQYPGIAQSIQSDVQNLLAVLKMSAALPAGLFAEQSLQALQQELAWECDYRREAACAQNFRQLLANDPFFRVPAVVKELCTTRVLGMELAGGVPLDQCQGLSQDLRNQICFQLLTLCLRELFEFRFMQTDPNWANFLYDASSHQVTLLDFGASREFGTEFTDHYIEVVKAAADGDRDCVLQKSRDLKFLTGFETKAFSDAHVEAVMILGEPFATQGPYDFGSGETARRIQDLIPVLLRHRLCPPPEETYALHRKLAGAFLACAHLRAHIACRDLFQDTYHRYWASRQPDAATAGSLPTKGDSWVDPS
Sequence of PRKD2 (human) (Q9BZL6 whole entry, looked up): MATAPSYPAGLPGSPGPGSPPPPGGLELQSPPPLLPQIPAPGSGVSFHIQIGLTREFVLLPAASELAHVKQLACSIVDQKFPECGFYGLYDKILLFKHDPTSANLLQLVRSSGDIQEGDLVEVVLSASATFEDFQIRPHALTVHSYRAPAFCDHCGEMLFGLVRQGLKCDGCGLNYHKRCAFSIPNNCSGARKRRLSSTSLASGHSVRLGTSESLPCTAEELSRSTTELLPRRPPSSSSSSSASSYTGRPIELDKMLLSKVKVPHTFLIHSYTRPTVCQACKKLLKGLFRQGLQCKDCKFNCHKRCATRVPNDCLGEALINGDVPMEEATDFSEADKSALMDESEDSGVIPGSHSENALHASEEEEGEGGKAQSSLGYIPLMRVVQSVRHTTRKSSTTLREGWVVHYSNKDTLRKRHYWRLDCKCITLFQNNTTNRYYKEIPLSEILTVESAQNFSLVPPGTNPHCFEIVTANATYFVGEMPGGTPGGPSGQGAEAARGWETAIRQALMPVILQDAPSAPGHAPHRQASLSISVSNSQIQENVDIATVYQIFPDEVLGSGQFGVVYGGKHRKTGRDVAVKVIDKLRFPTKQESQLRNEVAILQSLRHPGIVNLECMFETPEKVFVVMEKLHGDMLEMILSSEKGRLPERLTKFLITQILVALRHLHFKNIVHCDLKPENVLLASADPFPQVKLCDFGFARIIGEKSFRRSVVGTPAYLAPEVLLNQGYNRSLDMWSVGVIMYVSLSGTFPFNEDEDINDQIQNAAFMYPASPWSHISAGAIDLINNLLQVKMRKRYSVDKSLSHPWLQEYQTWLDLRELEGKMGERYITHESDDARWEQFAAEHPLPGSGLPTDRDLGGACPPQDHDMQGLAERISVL
Sequence of YES1 (human) (P07947 whole entry, looked up): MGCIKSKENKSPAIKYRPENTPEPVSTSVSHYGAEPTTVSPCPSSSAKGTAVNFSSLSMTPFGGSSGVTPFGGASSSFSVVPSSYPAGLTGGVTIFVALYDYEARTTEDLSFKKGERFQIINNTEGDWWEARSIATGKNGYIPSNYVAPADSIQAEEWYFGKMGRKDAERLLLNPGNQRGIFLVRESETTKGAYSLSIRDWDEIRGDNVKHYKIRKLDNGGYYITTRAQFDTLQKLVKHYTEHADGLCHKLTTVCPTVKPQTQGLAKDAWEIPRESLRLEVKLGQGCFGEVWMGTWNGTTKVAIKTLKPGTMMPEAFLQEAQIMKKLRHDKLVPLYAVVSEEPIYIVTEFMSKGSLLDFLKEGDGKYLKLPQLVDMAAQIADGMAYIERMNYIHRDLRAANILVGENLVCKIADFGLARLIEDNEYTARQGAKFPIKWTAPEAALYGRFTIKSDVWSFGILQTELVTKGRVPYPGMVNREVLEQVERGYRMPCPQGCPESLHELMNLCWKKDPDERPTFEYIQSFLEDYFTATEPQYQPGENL
Sequence of CAMKK2 (human) (Q96RR4 whole entry, looked up): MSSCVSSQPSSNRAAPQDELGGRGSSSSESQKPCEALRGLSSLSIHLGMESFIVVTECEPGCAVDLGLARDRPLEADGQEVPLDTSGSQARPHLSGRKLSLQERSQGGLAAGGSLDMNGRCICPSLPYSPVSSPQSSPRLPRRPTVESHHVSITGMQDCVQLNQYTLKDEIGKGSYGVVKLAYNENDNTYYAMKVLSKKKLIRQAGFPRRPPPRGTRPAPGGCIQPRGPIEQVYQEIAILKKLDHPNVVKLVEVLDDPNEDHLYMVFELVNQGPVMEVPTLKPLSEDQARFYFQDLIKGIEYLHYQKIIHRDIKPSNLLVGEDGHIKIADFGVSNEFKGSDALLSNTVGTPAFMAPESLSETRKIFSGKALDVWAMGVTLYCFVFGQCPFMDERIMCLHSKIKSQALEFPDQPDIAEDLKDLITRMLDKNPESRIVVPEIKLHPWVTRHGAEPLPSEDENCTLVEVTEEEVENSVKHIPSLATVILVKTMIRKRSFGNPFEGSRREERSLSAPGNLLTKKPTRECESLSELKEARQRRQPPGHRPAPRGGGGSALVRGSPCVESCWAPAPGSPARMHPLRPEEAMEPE

O=C1Nc2cc(Br)ccc2/C1=C1/Nc2ccccc2/C1=N\O
kinase still bound, per cent of control [1]: 100%
kinase still bound, per cent of control [2]: 70%
kinase still bound, per cent of control [3]: 37%
kinase still bound, per cent of control [4]: 55%
kinase still bound, per cent of control [5]: 18%
kinase still bound, per cent of control [6]: 90%
kinase still bound, per cent of control [7]: 100%
kinase still bound, per cent of control [8]: 21%
kinase still bound, per cent of control [9]: 35%
kinase still bound, per cent of control [10]: 6.5%
kinase still bound, per cent of control [11]: 83%
kinase still bound, per cent of control [12]: 87%
kinase still bound, per cent of control [13]: 24%
kinase still bound, per cent of control [14]: 59%
kinase still bound, per cent of control [15]: 56%
kinase still bound, per cent of control [16]: 36%
kinase still bound, per cent of control [17]: 12%
kinase still bound, per cent of control [18]: 56%
kinase still bound, per cent of control [19]: 2.2%
kinase still bound, per cent of control [20]: 18%
kinase still bound, per cent of control [21]: 100%
kinase still bound, per cent of control [22]: 55%
kinase still bound, per cent of control [23]: 28%
kinase still bound, per cent of control [24]: 53%
kinase still bound, per cent of control [25]: 100%
kinase still bound, per cent of control [26]: 69%
kinase still bound, per cent of control [27]: 13%
kinase still bound, per cent of control [28]: 57%
kinase still bound, per cent of control [29]: 100%
kinase still bound, per cent of control [30]: 0.15%
kinase still bound, per cent of control [31]: 90%
kinase still bound, per cent of control [32]: 7.4%
kinase still bound, per cent of control [33]: 100%
kinase still bound, per cent of control [34]: 100%
kinase still bound, per cent of control [35]: 100%
kinase still bound, per cent of control [36]: 0%
kinase still bound, per cent of control [37]: 6.4%
kinase still bound, per cent of control [38]: 35%
kinase still bound, per cent of control [39]: 48%
kinase still bound, per cent of control [40]: 46%
kinase still bound, per cent of control [41]: 58%

Cn1cc(C2=C(c3ccc(Cl)cc3Cl)C(=O)NC2=O)c2ccccc21
kinase still bound, per cent of control [1]: 41%
kinase still bound, per cent of control [2]: 100%
kinase still bound, per cent of control [3]: 72%
kinase still bound, per cent of control [4]: 100%
kinase still bound, per cent of control [5]: 100%
kinase still bound, per cent of control [6]: 100%
kinase still bound, per cent of control [7]: 100%
kinase still bound, per cent of control [8]: 88%
kinase still bound, per cent of control [9]: 100%
kinase still bound, per cent of control [10]: 64%
kinase still bound, per cent of control [11]: 100%
kinase still bound, per cent of control [12]: 100%
kinase still bound, per cent of control [13]: 70%
kinase still bound, per cent of control [14]: 2.3%
kinase still bound, per cent of control [15]: 100%
kinase still bound, per cent of control [16]: 100%
kinase still bound, per cent of control [17]: 56%
kinase still bound, per cent of control [18]: 62%
kinase still bound, per cent of control [19]: 73%
kinase still bound, per cent of control [20]: 29%
kinase still bound, per cent of control [21]: 100%
kinase still bound, per cent of control [22]: 24%
kinase still bound, per cent of control [23]: 32%
kinase still bound, per cent of control [24]: 66%
kinase still bound, per cent of control [25]: 100%
kinase still bound, per cent of control [26]: 94%
kinase still bound, per cent of control [27]: 100%
kinase still bound, per cent of control [28]: 100%
kinase still bound, per cent of control [29]: 100%
kinase still bound, per cent of control [30]: 62%
kinase still bound, per cent of control [31]: 91%
kinase still bound, per cent of control [32]: 15%
kinase still bound, per cent of control [33]: 100%
kinase still bound, per cent of control [34]: 100%
kinase still bound, per cent of control [35]: 99%
kinase still bound, per cent of control [36]: 100%
kinase still bound, per cent of control [37]: 100%
kinase still bound, per cent of control [38]: 96%
kinase still bound, per cent of control [39]: 82%
kinase still bound, per cent of control [40]: 100%
kinase still bound, per cent of control [41]: 100%
